Values joined by “and” are separate entries in the source; they are usually repeats but may differ in a detail not shown here. Equal values may be shown once. Starred links: 1 amine or outer side, 2 acyl side, 3 side chain; linkers in the order of their positions; H or OH if unused. Positions of bridges follow the written chain, without caps; N, C: chain ends. Non-standard residues stand in square brackets, D forms with d. Residues, ends and D or L forms follow the SMILES beside them. TATA = O=C(CC[*:1])N1CN(C(=O)CC[*:2])CN(C(=O)CC[*:3])C1; Phe(4-F) = N[C@@H](Cc1ccc(F)cc1)C(=O)O; β3hR = N=C(N)NCCC[C@H](N)CC(=O)O
Assays:
Test in all cases: Specificity profiling, residual protease activity
Type in all cases: biochemical
plasma kallikrein = molecular target: T1, plasma kallikrein (Homo sapiens, UniProt P03952)
T1 construct: 1.5 nM, factor XIa (Innovative Research) 6 nM, plasma kallikrein (Innovative Research) 0.25; purchased Innovative Research
Experimental: (§1) Protease inhibition assays
(§2) The inhibitory activity of peptides was determined by measuring the residual protease activity with a fluorogenic substrate. The assay was performed in buffer containing 10 mM Tris-Cl, pH […]
(§3) 1% (v/v) DMSO in a volume of 150 µl. […]
(§4) HFXIIAB) were used at final concentrations of 0.4 nM. The reaction was pipetted as follows: 50 µl of bicyclic peptide in assay buffer were added to 50 µl of FXIIa in assay buffer and incubated for 10 minutes at 25°C before 50 µl of 150 µM fluorogenic substrate in assay buffer were added to measure the residual protease activity with an Infinite M200Pro fluorescence plate reader (excitation at 368 nm, emission at 467 nm; Tecan) for a period of 30 minutes with a read every minute at 25°C. The Tecan software i-control (version 1.1) was used for data analysis. Stock solutions of 1 mM bicyclic peptide were prepared by either dissolving the unpurified cyclization reaction with water or by dissolving purified and lyophilized peptide in water. The bicyclic peptides were serially diluted two-fold using assay buffer. Sigmoidal curves were fitted to the data using the following dose response equation (1), wherein x = peptide concentration, y = % protease activity, and p = Hill slope. IC50 values were derived from the fitted curve.
(§5) The inhibition constants (Ki) were calculated according to the equation of Cheng and Prusoff, Ki = IC50/(1+([S]0/Km), wherein IC50 is the functional strength of the inhibitor, [S]0 is the total substrate concentration, and Km is the Michaelis-Menten constant. […]
(§6) For testing the specificity of the bicyclic peptides, the following final concentrations of human serine proteases were used: tPA (Molecular Innovations) 7.5 nM, uPA (Molecular Innovations) 1.5 nM, factor XIa (Innovative Research) 6 nM, plasma kallikrein (Innovative Research) 0.25 nM, thrombin (Molecular Innovations) 1 nM, plasmin (Molecular Innovations) 2.5 nM, trypsin (Molecular Innovations) 0.05 nM, factor VIIa (Haematologic Technologies) 50 nM, factor Xa […]
(§7) (Haematologic Technologies) 6 nM, and activated protein C (APC) 5 nM. Two-fold dilutions of the peptide were prepared that ranged from 0.04 to 40 µM. The following fluorogenic substrates were used at a final concentration of 50 µM: Z-Phe-Arg-AMC (Bachem) for plasma kallikrein; Boc-Phe-Ser-Arg-AMC (Bachem) for factor XIa; Z-Gly-Gly-Arg-AMC (Bachem) for tPA, uPA, thrombin, and trypsin; H-D-Val-Leu-Lys-AMC (Bachem) for plasmin; and D-Phe-Pro-Arg-ANSNH-C4H9 (Haematologic Technologies) for FVIIa and FXa. For APC, the chromogenic substrate pyroGlu-Pro-Arg-pNA (S2366) was used at a concentration of 400 µM. […]

tPA = molecular target: T2, tPA (Homo sapiens, UniProt P00750)
T2 construct: purchased Molecular Innovations
Experimental: as §1, §2, §3, §4, §5, §6, §7

uPA = molecular target: T3, uPA (Homo sapiens, UniProt P00749)
T3 construct: purchased Molecular Innovations
Experimental: as §1, §2, §3, §4, §5, §6, §7

factor XIa = molecular target: T4, factor XIa (Homo sapiens, UniProt P03951)
T4 construct: 1.5 nM, factor XIa (Innovative Research) 6 nM, plasma kallikrein (Innovative Research) 0.25; purchased Innovative Research
Experimental: as §1, §2, §3, §4, §5, §6, §7

[1] = inhibitor 39.0625 nM, 0.0390625 µM
[2] = inhibitor 78.125 nM, 0.078125 µM
[3] = inhibitor 156.25 nM, 0.15625 µM
[4] = inhibitor 40000 nM (40 µM), 40 µM

T1 sequence (P03952 391-638 limits assumed): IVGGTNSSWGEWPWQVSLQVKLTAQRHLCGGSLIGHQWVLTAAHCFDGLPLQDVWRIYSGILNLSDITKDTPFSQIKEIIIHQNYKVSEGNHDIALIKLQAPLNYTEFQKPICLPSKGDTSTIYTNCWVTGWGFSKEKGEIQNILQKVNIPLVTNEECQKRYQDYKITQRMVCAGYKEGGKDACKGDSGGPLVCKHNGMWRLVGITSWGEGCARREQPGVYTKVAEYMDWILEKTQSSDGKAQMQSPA
T1 sequence (P03952 20-390 limits assumed): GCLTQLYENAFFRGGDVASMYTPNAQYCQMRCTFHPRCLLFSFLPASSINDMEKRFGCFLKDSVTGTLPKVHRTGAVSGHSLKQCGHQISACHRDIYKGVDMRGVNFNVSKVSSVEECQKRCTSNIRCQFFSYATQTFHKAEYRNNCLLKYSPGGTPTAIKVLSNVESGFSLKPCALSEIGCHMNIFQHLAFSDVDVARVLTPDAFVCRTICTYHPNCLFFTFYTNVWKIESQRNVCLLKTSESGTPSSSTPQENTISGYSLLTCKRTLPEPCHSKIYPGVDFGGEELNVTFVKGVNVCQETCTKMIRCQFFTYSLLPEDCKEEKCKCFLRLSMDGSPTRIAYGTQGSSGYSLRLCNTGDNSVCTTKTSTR
T4 sequence (P03951 388-625 limits assumed): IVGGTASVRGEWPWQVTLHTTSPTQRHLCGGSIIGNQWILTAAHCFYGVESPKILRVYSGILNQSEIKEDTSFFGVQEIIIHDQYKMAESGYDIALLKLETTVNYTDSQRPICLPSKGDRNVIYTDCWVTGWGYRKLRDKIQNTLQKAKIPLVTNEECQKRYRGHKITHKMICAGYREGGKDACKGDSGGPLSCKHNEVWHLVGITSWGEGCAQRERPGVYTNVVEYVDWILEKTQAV
T4 sequence (P03951 19-387 limits assumed): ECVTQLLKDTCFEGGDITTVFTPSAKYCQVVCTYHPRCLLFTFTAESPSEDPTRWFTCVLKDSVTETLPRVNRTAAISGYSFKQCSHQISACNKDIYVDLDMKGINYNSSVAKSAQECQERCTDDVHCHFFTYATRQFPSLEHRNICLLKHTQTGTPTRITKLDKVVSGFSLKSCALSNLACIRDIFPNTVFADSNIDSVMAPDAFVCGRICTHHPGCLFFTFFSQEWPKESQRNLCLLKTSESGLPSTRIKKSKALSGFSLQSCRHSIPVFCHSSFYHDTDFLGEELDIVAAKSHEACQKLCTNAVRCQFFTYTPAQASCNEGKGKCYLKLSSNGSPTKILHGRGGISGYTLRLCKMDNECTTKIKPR
T2 sequence (P00750 36-562): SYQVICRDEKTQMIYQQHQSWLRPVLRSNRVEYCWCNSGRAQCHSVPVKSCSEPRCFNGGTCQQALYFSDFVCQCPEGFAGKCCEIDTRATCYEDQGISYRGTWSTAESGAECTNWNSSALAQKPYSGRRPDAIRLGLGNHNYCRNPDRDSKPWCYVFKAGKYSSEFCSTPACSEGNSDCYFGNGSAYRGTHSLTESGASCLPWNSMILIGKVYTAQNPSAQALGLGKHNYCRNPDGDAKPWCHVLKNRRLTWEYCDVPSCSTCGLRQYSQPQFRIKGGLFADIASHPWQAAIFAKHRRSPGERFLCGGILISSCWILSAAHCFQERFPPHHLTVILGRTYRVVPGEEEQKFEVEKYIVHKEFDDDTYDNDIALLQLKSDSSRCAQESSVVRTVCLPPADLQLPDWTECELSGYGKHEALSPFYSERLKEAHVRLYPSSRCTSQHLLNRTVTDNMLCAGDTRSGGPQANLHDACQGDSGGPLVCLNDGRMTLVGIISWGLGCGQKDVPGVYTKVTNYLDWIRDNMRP

CC(C)C[C@@H]1NC(=O)[C@H](CCC(N)=O)NC(=O)[C@H](Cc2c[nH]cn2)NC(=O)[C@@H]2CSCCC(=O)N3CN(CN(C3)C(=O)CCSC[C@H](NC(=O)[C@@H](CO)NC(=O)[C@H](N)CCCNC(=N)N)C(=O)N[C@@H](Cc3ccc(F)cc3)C(=O)N[C@@H](CCCNC(=N)N)C(=O)N[C@@H](CC(C)C)C(=O)N3CCC[C@H]3C(=O)N2)C(=O)CCSC[C@@H](C(N)=O)NC(=O)C[C@H](CCCNC(=N)N)NC1=O [FXII900] (H-[dR][dS]C[Phe(4-F)]RLPCHQL[β3hR]C-NH2; linker 3-8-13 via TATA)
Ki (plasma kallikrein): > 40 µM | remaining activity at 0.0390625 µM (plasma kallikrein; inhibitor 39.0625 nM): 98.1% | Residual activity of Plasma kallikrein (plasma kallikrein; [1]): 100.436% | remaining activity at 0.078125 µM (plasma kallikrein; inhibitor 78.125 nM): 98.4% | Residual activity of Plasma kallikrein (plasma kallikrein; [2]): 99.938% | remaining activity at 0.15625 µM (plasma kallikrein; inhibitor 156.25 nM): 98.9% | Residual activity of Plasma kallikrein (plasma kallikrein; [3]): 99.0018% | remaining activity at 0.3125 µM (plasma kallikrein; inhibitor 312.5 nM): 102% | Residual activity of Plasma kallikrein (plasma kallikrein; inhibitor 312.5 nM, 0.3125 µM): 98.8676% | remaining activity at 0.625 µM (plasma kallikrein; inhibitor 625 nM): 101% | Residual activity of Plasma kallikrein (plasma kallikrein; inhibitor 625 nM, 0.625 µM): 98.0454% | remaining activity at 1.25 µM (plasma kallikrein; inhibitor 1250 nM): 101% | Residual activity of Plasma kallikrein (plasma kallikrein; inhibitor 1250 nM, 1.25 µM): 97.0056% | remaining activity at […] (plasma kallikrein; inhibitor 2500 nM): 96% | Residual activity of Plasma kallikrein (plasma kallikrein; inhibitor 2500 nM, […]): 95.4747% | remaining activity at 5 µM (plasma kallikrein; inhibitor 5000 nM): 92.8% | Residual activity of Plasma kallikrein (plasma kallikrein; inhibitor 5000 nM, 5 µM): 93.0245% | remaining activity at 10 µM (plasma kallikrein; inhibitor 10000 nM): 91.9% | Residual activity of Plasma kallikrein (plasma kallikrein; inhibitor 10000 nM, 10 µM): 91.0418% | remaining activity at 20 µM (plasma kallikrein; inhibitor 20000 nM): 84.1% | Residual activity of Plasma kallikrein (plasma kallikrein; inhibitor 20000 nM, 20 µM): 81.6415% | remaining activity at 40 µM (plasma kallikrein; inhibitor 40000 nM (40 µM)): 72% | Residual activity of Plasma kallikrein (plasma kallikrein; [4]): 73.9098% and 69.1761% | Ki (tPA): > 40 µM | remaining activity at 0.0390625 µM (tPA; inhibitor 39.0625 nM): 95.1% | Residual activity of tPa (tPA; [1]): 93.3208% | remaining activity at 0.078125 µM (tPA; inhibitor 78.125 nM): 95.9% | Residual activity of tPa (tPA; [2]): 101.687% | remaining activity at 0.15625 µM (tPA; inhibitor 156.25 nM): 98.8% | Residual activity of tPa (tPA; [3]): 101.694% | remaining activity at 0.3125 µM (tPA; inhibitor 312.5 nM): 97.2% | Residual activity of tPa (tPA; inhibitor 312.5 nM, 0.3125 µM): 101.741% | remaining activity at 0.625 µM (tPA; inhibitor 625 nM): 95% | Residual activity of tPa (tPA; inhibitor 625 nM, 0.625 µM): 94.8368% | remaining activity at 1.25 µM (tPA; inhibitor 1250 nM): 101% | Residual activity of tPa (tPA; inhibitor 1250 nM, 1.25 µM): 102.859% | remaining activity at […] (tPA; inhibitor 2500 nM): 100% | Residual activity of tPa (tPA; inhibitor 2500 nM, […]): 101.452% | remaining activity at 5 µM (tPA; inhibitor 5000 nM): 87.2% | Residual activity of tPa (tPA; inhibitor 5000 nM, 5 µM): 93.856% | Residual activity of tPa (tPA; inhibitor 10000 nM, 10 µM): 102.407% and 77.7753% | remaining activity at 20 µM (tPA; inhibitor 20000 nM): 89.2% | Residual activity of tPa (tPA; inhibitor 20000 nM, 20 µM): 97.2498% | remaining activity at 40 µM (tPA; inhibitor 40000 nM (40 µM)): 97% | Residual activity of tPa (tPA; [4]): 94.4809% and 101.833% | Ki (uPA): > 40 µM | remaining activity at 0.0390625 µM (uPA; inhibitor 39.0625 nM): 96.1% | Residual activity of uPa (uPA; [1]): 99.3438% | remaining activity at 0.078125 µM (uPA; inhibitor 78.125 nM): 94.9% | Residual activity of uPa (uPA; [2]): 99.5842% | remaining activity at 0.15625 µM (uPA; inhibitor 156.25 nM): 99.6% | Residual activity of uPa (uPA; [3]): 106.929% | remaining activity at 0.3125 µM (uPA; inhibitor 312.5 nM): 98.2% | Residual activity of uPa (uPA; inhibitor 312.5 nM, 0.3125 µM): 103.987% | remaining activity at 0.625 µM (uPA; inhibitor 625 nM): 98.8% | Residual activity of uPa (uPA; inhibitor 625 nM, 0.625 µM): 103.035% | remaining activity at 1.25 µM (uPA; inhibitor 1250 nM): 100% | Residual activity of uPa (uPA; inhibitor 1250 nM, 1.25 µM): 106.211% | remaining activity at […] (uPA; inhibitor 2500 nM): 101% | Residual activity of uPa (uPA; inhibitor 2500 nM, […]): 90.2133% | remaining activity at 5 µM (uPA; inhibitor 5000 nM): 99.4% | Residual activity of uPa (uPA; inhibitor 5000 nM, 5 µM): 106.237% | remaining activity at 10 µM (uPA; inhibitor 10000 nM): 96.6% | Residual activity of uPa (uPA; inhibitor 10000 nM, 10 µM): 102.075% | remaining activity at 20 µM (uPA; inhibitor 20000 nM): 96.3% | Residual activity of uPa (uPA; inhibitor 20000 nM, 20 µM): 101.698% | remaining activity at 40 µM (uPA; inhibitor 40000 nM (40 µM)): 98.7% | Residual activity of uPa (uPA; [4]): 97.4594% and 105.626% | Residual activity of FXIa (factor XIa; [1]): 100.642% | remaining activity at 0.0390625 µM (factor XIa; inhibitor 39.0625 nM, read-out: Residual activity of FXIa): 96.6% | Residual activity of FXIa (factor XIa; [2]): 103.852% | remaining activity at 0.078125 µM (factor XIa; inhibitor 78.125 nM, read-out: Residual activity of FXIa): 93.8% | Residual activity of FXIa (factor XIa; [3]): 98.179% | remaining activity at 0.15625 µM (factor XIa; inhibitor 156.25 nM, read-out: Residual activity of FXIa): 94.7% | Residual activity of FXIa (factor XIa; inhibitor 312.5 nM, 0.3125 µM): 98.2463% | remaining activity at 0.3125 µM (factor XIa; inhibitor 312.5 nM, read-out: Residual activity of FXIa): 97.5% | Residual activity of FXIa (factor XIa; inhibitor 625 nM, 0.625 µM): 97.4314% | remaining activity at 0.625 µM (factor XIa; inhibitor 625 nM, read-out: Residual activity of FXIa): 94.9% | Residual activity of FXIa (factor XIa; inhibitor 1250 nM, 1.25 µM): 98.4364% | remaining activity at 1.25 µM (factor XIa; inhibitor 1250 nM, read-out: Residual activity of FXIa): 94.1% | Residual activity of FXIa (factor XIa; inhibitor 2500 nM, […]): 98.6547% | remaining activity at […] (factor XIa; inhibitor 2500 nM, read-out: Residual activity of FXIa): 91.5% | Residual activity of FXIa (factor XIa; inhibitor 5000 nM, 5 µM): 98.6945% | remaining activity at 5 µM (factor XIa; inhibitor 5000 nM, read-out: Residual activity of FXIa): 98.9% | Residual activity of FXIa (factor XIa; inhibitor 10000 nM, 10 µM): 99.1545% | remaining activity at 10 µM (factor XIa; inhibitor 10000 nM, read-out: Residual activity of FXIa): 97.3% | Residual activity of FXIa (factor XIa; inhibitor 20000 nM, 20 µM): 95.8964% | remaining activity at 20 µM (factor XIa; inhibitor 20000 nM, read-out: Residual activity of FXIa): 96.3% | Residual activity of FXIa (factor XIa; [4]): 95.5908% and 94.7249% | remaining activity at 40 µM (factor XIa; inhibitor 40000 nM (40 µM), read-out: Residual activity of FXIa): 95.1% | Ki (factor XIa; read-out: Ki FXIa): > 40 µM

From PMC7403315, “Cyclic peptide FXII inhibitor provides safe anticoagulation in a thrombosis model and in artificial lungs” (Nature Communications, 2020)
